Reference: paper PMC9569995, “Study of Biological Activities and ADMET-Related Properties of Salicylanilide-Based Peptidomimetics” (International Journal of Molecular Sciences, 2022)
Where two headings read alike, the source gives them in different places.

What was measured:
[1] = Lipophilicity determination by HPLC; type: physicochemical; conditions: for log D6.5: HPLC C18, MeOH 72%/acetate-buffered saline pH 6.5 28%; for log D7.4: HPLC C18, MeOH 72%/acetate-buffered saline pH 7.4 28%; for log k: logarithm of capacity factor, HPLC C18, MeOH 72%/H2O 28%; for averaged lipophilicity value of log k/log D6.5/log D7.4: average of the three experimental descriptors
Source text: . A chromatographic column Symmetry® C18 5 μm, 4.6 × 250 mm, Part No. W21751W016 (Waters Corp, Milford, MA, USA) was used. The HPLC separation process was monitored by ChemStation for LC 3D systems (Agilent Technologies). Isocratic elution by a mixture of MeOH (HPLC grade, 72%) and H2O-HPLC Mili-Q grade (28%) as a mobile phase was used for the determination of capacity factor k. Isocratic elution by a mixture of MeOH (HPLC grade, 72%) and acetate-buffered saline (pH 7.4 and pH 6.5) (28%) as a mobile phase was used for the determination of distribution coefficient expressed as D7.4 and D6.5. The total flow of the column was 1.0 mL/min, injection was 20 μL, column temperature was 40 °C, and sample temperature was 10 °C. The detection wavelength of 210 nm was chosen. A KI methanolic solution was used for the determination of the dead times (tD). Retention times (tR) were measured in minutes. The capacity factors k were calculated according to the formula k = (tR − tD)/tD, where tR is the retention time of the solute, and tD is the dead time obtained using an unretained analyte. The distribution coefficients DpH were calculated according to the formula DpH = (tR − tD)/tD. Each experiment was repeated three times.

M. smegmatis ATCC 700084 = assay: In vitro antimycobacterial evaluation, MIC (broth dilution micro-method); type: cell-based, Mycobacterium smegmatis; conditions: Mycolicibacterium smegmatis
Experimental: For M. smegmatis, the broth dilution micro-method in Middlebrook 7H9 medium (Difco) supplemented with ADC Enrichment (Difco) was used. […] Bacterial inocula were prepared by transferring colonies from culture to sterile water. The cell density was adjusted to 0.5 McFarland units using a densitometer (Densi-La-Meter, LIAP, Riga, Latvia). The final inoculum was made by 1:1000 dilution of the suspension with sterile water. Drug-free controls, sterility controls, and controls consisting of medium and DMSO alone were included. The determination of results was performed visually after three days of static incubation in the darkness at 37 °C in an aerobic atmosphere.

[2] = system: human monocytic leukemia cell line THP-1; assay: In vitro cell viability analysis (CCK-8); type: cell-based; conditions: ± SD, n = 6, medium with 10% FBS, 24 h
Experimental: Human monocytic leukemia THP-1 cells obtained from the European Collection of Cell Cultures (ECACC, Salisbury, UK) were used for in vitro antiproliferative assays. They were routinely cultured in Roswell Park Memorial Institute RPMI 1640 medium supplemented with 10% fetal bovine serum (FBS), 2% L-glutamine, 1% penicillin, and streptomycin (all from Sigma-Aldrich) at 37 °C with 5% CO2. The cells were incubated in a complete medium (i.e., containing FBS) with test compounds at 37 °C with 5% CO2 for 24 h, similarly as we described previously. The effect of the test compounds dissolved in DMSO on cell viability was determined using a Cell Counting Kit-8 (CCK-8; Sigma) according to the manufacturer’s instructions.

[3] = system: Mycobacterium tuberculosis H37Ra/ATCC 25177; assay: In vitro antimycobacterial evaluation, MIC (alamarBlue); conditions: MT
[4] = system: Staphylococcus aureus ATCC 29213; assay: In vitro antibacterial evaluation, MIC by microtitration broth method
[5] = system: methicillin-resistant S. aureus SA 3202; assay: as above; conditions: Staphylococcus aureus
[6] = system: methicillin-resistant S. aureus SA 630; assay: as above; conditions: Staphylococcus aureus
[7] = system: methicillin-resistant S. aureus 63718; assay: as above; conditions: Staphylococcus aureus
[8] = system: Enterococcus faecalis ATCC 29212; assay: as above
[9] = system: vancomycin-resistant E. faecalis VRE 342B; assay: as above; conditions: Enterococcus faecalis
[10] = system: vancomycin-resistant E. faecalis VRE 368; assay: as above; conditions: Enterococcus faecalis
[11] = system: vancomycin-resistant E. faecalis VRE 725B; assay: as above; conditions: Enterococcus faecalis
[12] = ATCC700084, 72 h, MS, three days, 37 °C, read-out: MIC

Row | Structure (SMILES) | log D6.5 [1] | log D7.4 [1] | log k [1] | MIC (M. smegmatis ATCC 700084; ATCC700084) | IC50 [2] | MIC ([3]; Table S2) | MIC ([4]; ATCC29213) | MIC [5] | MIC [6] | MIC [7] | MIC ([8]; ATCC29212) | MIC [9] | MIC [10] | MIC [11] | MIC (M. smegmatis ATCC 700084; [12]) | MIC ([3]; 14 days, 37 °C) | also measured
1 | CSCC[C@H](NC(=O)c1cc(Cl)ccc1OCc1ccccc1)C(=O)Nc1ccc(C(F)(F)F)cc1 [2e, 2-(Benzyloxy)-5-chloro-N-[(2S)-4-(methylsulfanyl)-1-oxo-1-{[4-(trifluoromethyl)phenyl]amino}butan-2-yl]benzamide] | 1.714 | 1.689 | 1.668 | > 256 µg/mL | > 10 µM | > 256 µg/mL | > 256 µg/mL | > 256 µg/mL | > 256 µg/mL | > 256 µg/mL | > 256 µg/mL | > 256 µg/mL | > 256 µg/mL | > 256 µg/mL | – | – | –
2 | NNC(=O)c1ccncc1 [INH, isoniazid, reference compound] | – | – | – | – | – | – | – | – | – | – | – | – | – | – | 117 µM | 36.6 – µM | –
3 | CCC[C@H](NC(=O)c1cc(Cl)ccc1OCc1ccccc1)C(=O)Nc1ccc(C(F)(F)F)cc1 [2b, 2-(Benzyloxy)-5-chloro-N-[(2S)-1-oxo-1-{[4-(trifluoromethyl)phenyl]amino}pentan-2-yl]benzamide] | 1.742 | 1.731 | 1.709 | > 256 µg/mL | > 10 µM | > 256 µg/mL | > 256 µg/mL | > 256 µg/mL | > 256 µg/mL | > 256 µg/mL | > 256 µg/mL | > 256 µg/mL | > 256 µg/mL | > 256 µg/mL | – | – | –
4 | CC(C)C[C@H](NC(=O)c1cc(Cl)ccc1O)C(=O)N[C@@H](Cc1ccccc1)C(=O)Nc1ccc(C(F)(F)F)cc1 [6a] | 1.510 | 1.493 | 1.560 | – | 2.2 ± 1.1 µM | – | – | – | – | – | – | – | – | – | > 256 µg/mL | n.a. n.d. (n.a. = no activity (MIC > 256 µg/mL)) | MIC ([4]; ATCC29213, 24 h): 222 µM; MIC ([5]; 24 h): 444 µM; MIC ([6]; 24 h): 444 µM; MIC ([7]; 24 h): 444 µM; MIC ([8]; ATCC29212, 24 h): > 256 µg/mL; MIC ([9]; 24 h): > 256 µg/mL; MIC ([10]; 24 h): > 256 µg/mL; MIC ([11]; 24 h): > 256 µg/mL
5 | O=C(N[C@@H](Cc1ccccc1)C(=O)Nc1ccc(C(F)(F)F)cc1)c1cc(Cl)ccc1OCc1ccccc1 [2h] | 1.889 | 1.871 | 1.852 | > 256 µg/mL | > 10 µM | > 256 µg/mL | > 256 µg/mL | > 256 µg/mL | > 256 µg/mL | > 256 µg/mL | > 256 µg/mL | > 256 µg/mL | > 256 µg/mL | > 256 µg/mL | – | – | –
6 | CCC[C@H](NC(=O)c1cc(Cl)ccc1O)C(=O)Nc1ccc(C(F)(F)F)cc1 [3b, 5-Chloro-2-hydroxy-N-[(2S)-1-oxo-1-{[4-(trifluoromethyl)phenyl]amino}pentan-2-yl]benzamide] | 1.060 | 1.016 | 1.141 | – | 7.3 ± 1.2 µM | – | – | – | – | – | – | – | – | – | > 256 µg/mL | n.a. n.d. (n.a. = no activity (MIC > 256 µg/mL)) | MIC ([4]; ATCC29213, 24 h): > 256 µg/mL; MIC ([5]; 24 h): > 256 µg/mL; MIC ([6]; 24 h): > 256 µg/mL; MIC ([7]; 24 h): > 256 µg/mL; MIC ([8]; ATCC29212, 24 h): > 256 µg/mL; MIC ([9]; 24 h): > 256 µg/mL; MIC ([10]; 24 h): > 256 µg/mL; MIC ([11]; 24 h): > 256 µg/mL
7 | C[C@H](NC(=O)c1cc(Cl)ccc1O)C(=O)Nc1ccc(C(F)(F)F)cc1 [3a, 5-Chloro-2-hydroxy-N-[(2S)-1-oxo-1-{[4-(trifluoromethyl)phenyl]amino}propan-2-yl]benzamide] | 0.804 | 0.759 | 0.866 | – | > 10 µM | – | – | – | – | – | – | – | – | – | > 256 µg/mL | n.a. n.d. (n.a. = no activity (MIC > 256 µg/mL)) | averaged lipophilicity value of log k/log D6.5/log D7.4 [1]: 0.81 ± 0.05; MIC ([4]; ATCC29213, 24 h): > 256 µg/mL; MIC ([5]; 24 h): > 256 µg/mL; MIC ([6]; 24 h): > 256 µg/mL; MIC ([7]; 24 h): > 256 µg/mL; MIC ([8]; ATCC29212, 24 h): > 256 µg/mL; MIC ([9]; 24 h): > 256 µg/mL; MIC ([10]; 24 h): > 256 µg/mL; MIC ([11]; 24 h): > 256 µg/mL
8 | CC(C)C[C@H](NC(=O)c1cc(Cl)ccc1OCc1ccccc1)C(=O)Nc1ccc(C(F)(F)F)cc1 [2f] | 2.014 | 1.995 | 1.975 | > 256 µg/mL | > 10 µM | > 256 µg/mL | > 256 µg/mL | > 256 µg/mL | > 256 µg/mL | > 256 µg/mL | > 256 µg/mL | > 256 µg/mL | > 256 µg/mL | > 256 µg/mL | – | – | –
9 | C[C@H](NC(=O)c1cc(Cl)ccc1OCc1ccccc1)C(=O)Nc1ccc(C(F)(F)F)cc1 [2a, 2-(Benzyloxy)-5-chloro-N-[(2S)-1-oxo-1-{[4-(trifluoromethyl)phenyl]amino}propan-2-yl]benzamide] | 1.489 | 1.474 | 1.450 | > 256 µg/mL | > 10 µM | > 256 µg/mL | > 256 µg/mL | > 256 µg/mL | > 256 µg/mL | > 256 µg/mL | > 256 µg/mL | > 256 µg/mL | > 256 µg/mL | > 256 µg/mL | – | – | averaged lipophilicity value of log k/log D6.5/log D7.4 [1]: 1.47 ± 0.02
10 | CC(C)C[C@H](NC(=O)[C@H](Cc1ccccc1)NC(=O)c1cc(Cl)ccc1OCc1ccccc1)C(=O)Nc1ccc(C(F)(F)F)cc1 [5b] | 1.994 | 2.027 | 2.049 | > 256 µg/mL | > 10 µM | > 256 µg/mL | > 256 µg/mL | > 256 µg/mL | > 256 µg/mL | > 256 µg/mL | > 256 µg/mL | > 256 µg/mL | > 256 µg/mL | > 256 µg/mL | – | – | –
11 | CC(C)[C@H](NC(=O)c1cc(Cl)ccc1OCc1ccccc1)C(=O)Nc1ccc(C(F)(F)F)cc1 [2c, 2-(Benzyloxy)-5-chloro-N-[(2S)-3-methyl-1-oxo-1-{[4-(trifluoromethyl)phenyl]amino}butan-2-yl]benzamide] | 1.711 | 1.697 | 1.683 | > 256 µg/mL | > 10 µM | > 256 µg/mL | > 256 µg/mL | > 256 µg/mL | > 256 µg/mL | > 256 µg/mL | > 256 µg/mL | > 256 µg/mL | > 256 µg/mL | > 256 µg/mL | – | – | –
12 | O=C(N[C@@H](CC1CCCCC1)C(=O)Nc1ccc(C(F)(F)F)cc1)c1cc(Cl)ccc1OCc1ccccc1 [2g, 2-(Benzyloxy)-5-chloro-N-[(2S)-3-cyclohexyl-1-oxo-1-{[4-(trifluoromethyl)phenyl]amino}propan-2-yl]benzamide] | 1.767 | 1.746 | 1.820 | > 256 µg/mL | > 10 µM | > 256 µg/mL | > 256 µg/mL | > 256 µg/mL | > 256 µg/mL | > 256 µg/mL | > 256 µg/mL | > 256 µg/mL | > 256 µg/mL | > 256 µg/mL | – | – | –
